Data reported in the supplement of paper PMC4862054.

Columns and labels:
BT-474 = conditions: 72 h
In short: (§1)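 EC50 was fitted from dose-response curves and censored at the highest concentration tested. To build those curves, breast cancer cell lines (20 µl suspension) were seeded into 384-well plates containing compound at 5 concentrations in 10-fold steps over a compound-specific 10,000-fold range and incubated for 72 h. Readouts were CellTox Green fluorescence (485/520 nm) for cell death and then CellTiter-Glo luminescence for viability, with each plate normalised to 0.1 % DMSO and a positive kill control.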

BT-549 [1] = conditions: 72 h
In short: as §1

CAL-120 [2] = conditions: 72 h
In short: as §1

CAL-148 = conditions: 72 h
In short: as §1

CAL-51 = conditions: 72 h
In short: as §1

CAL-85-1 = conditions: 72 h
In short: as §1

DU-4475 = conditions: 72 h
In short: as §1

HCC1143 [3] = conditions: 72 h
In short: as §1

HCC1599 [4] = conditions: 72 h
In short: as §1

HCC1937 [5] = conditions: 72 h
In short: as §1

HDQ-P1 = conditions: 72 h
In short: as §1

Hs578T [6] = conditions: 72 h
In short: as §1

MCF-10A = conditions: 72 h
In short: as §1

MDA-MB-231 [7] = conditions: 72 h
In short: as §1

MDA-MB-436 [8] = conditions: 72 h
In short: as §1

MDA-MB-453 = conditions: 72 h
In short: as §1

MDA-MB-468 [9] = conditions: 72 h
In short: as §1

MFM-223 [10] = conditions: 72 h
In short: as §1

SK-BR-3 [11] = conditions: 72 h
In short: as §1

BT-549 [12] = conditions: 72 h; remark: listed apart in the source
In short: (§2)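 The reported EC50 was fitted from percent-inhibition dose-response curves and censored at the highest concentration. Breast cancer cell lines (20 µl suspension) were added to 384-well plates containing compound in 5 µl medium and incubated 72 h, and viability was read with 2.5 µl CellTiter-Blue over 2 h at 37 °C at 560/590 nm. Each plate was normalised to vehicle and a positive kill control and checked by Z'-factor, and rows with zero drug sensitivity score were dropped.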

CAL-120 [13] = conditions: 72 h; remark: listed apart in the source
In short: as §2

HCC1143 [14] = conditions: 72 h; remark: listed apart in the source
In short: as §2

HCC1599 [15] = conditions: 72 h; remark: listed apart in the source
In short: as §2

HCC1937 [16] = conditions: 72 h; remark: listed apart in the source
In short: as §2

Hs578T [17] = conditions: 72 h; remark: listed apart in the source
In short: as §2

MDA-MB-231 [18] = conditions: 72 h; remark: listed apart in the source
In short: as §2

MDA-MB-436 [19] = conditions: 72 h; remark: listed apart in the source
In short: as §2

MDA-MB-468 [20] = conditions: 72 h; remark: listed apart in the source
In short: as §2

MFM-223 [21] = conditions: 72 h; remark: listed apart in the source
In short: as §2

SK-BR-3 [22] = conditions: 72 h; remark: listed apart in the source
In short: as §2

HCC1143 [23] = assay: normalised viability (% of control), CellTiter-Blue; higher = more viable cells (about 100 = DMSO control); conditions: incubation time: 72 h
In short: (§3)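 Seeded at 20 µl suspension per well onto compound-loaded 384-well plates, breast cancer cell lines were incubated 72 h. CellTiter-Blue fluorescence at 560/590 nm was then read, with each plate normalised to vehicle (100) and a positive kill control (0). Normalised viability is reported at a single listed concentration of the series.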

HCC1599 [24] = assay: as above; conditions: incubation time: 72 h
In short: as §3

HCC1937 [25] = assay: as above; conditions: incubation time: 72 h
In short: as §3

SK-BR-3 [26] = assay: as above; conditions: incubation time: 72 h
In short: as §3

COc1cccc2c1C(=O)c1c(O)c3c(c(O)c1C2=O)C[C@@](O)(C(C)=O)C[C@@H]3O[C@H]1C[C@H](N)[C@H](O)[C@H](C)O1 [Daunorubicin]
EC50, CellTiter-Glo (BT-474): 169 nM
EC50, CellTiter-Glo (BT-549 [1]): 129 nM
EC50, CellTiter-Glo (CAL-120 [2]): 227 nM
EC50, CellTiter-Glo (CAL-148): 0.134 µM
EC50, CellTiter-Glo (CAL-51): 84.2 nM
EC50, CellTiter-Glo (CAL-85-1): 380 nM
EC50, CellTiter-Glo (DU-4475): 211 nM
EC50, CellTiter-Glo (HCC1143 [3]): 0.535 µM
EC50, CellTiter-Glo (HCC1599 [4]): 0.57 µM
EC50, CellTiter-Glo (HCC1937 [5]): 692 nM
EC50, CellTiter-Glo (HDQ-P1): 519 nM
EC50, CellTiter-Glo (Hs578T [6]): 229 nM
EC50, CellTiter-Glo (MCF-10A): 633 nM
EC50, CellTiter-Glo (MDA-MB-231 [7]): 221 nM
EC50, CellTiter-Glo (MDA-MB-436 [8]): 175 nM
EC50, CellTiter-Glo (MDA-MB-453): 470 nM
EC50, CellTiter-Glo (MDA-MB-468 [9]): 109 nM
EC50, CellTiter-Glo (MFM-223 [10]): 784 nM
EC50, CellTiter-Glo (SK-BR-3 [11]): 254 nM
EC50, CellTiter-Blue viability (BT-549 [12]): 141 nM
EC50, CellTiter-Blue viability (CAL-120 [13]): 41.8 nM
EC50, CellTiter-Blue viability (HCC1143 [14]): 46.8 nM
EC50, CellTiter-Blue viability (HCC1599 [15]): 444 nM
EC50, CellTiter-Blue viability (HCC1937 [16]): 24.7 nM
EC50, CellTiter-Blue viability (Hs578T [17]): 150 nM
EC50, CellTiter-Blue viability (MDA-MB-231 [18]): 56.1 nM
EC50, CellTiter-Blue viability (MDA-MB-436 [19]): 78.5 nM
EC50, CellTiter-Blue viability (MDA-MB-468 [20]): 98.2 nM
EC50, CellTiter-Blue viability (MFM-223 [21]): 667 nM
EC50, CellTiter-Blue viability (SK-BR-3 [22]): 66.4 nM
normalised viability (HCC1143 [23]; 1 nM): 81.4%
normalised viability (HCC1143 [23]; 100 nM): 52.7%
normalised viability (HCC1143 [23]; 1000 nM): 32%
normalised viability (HCC1599 [24]; 1 nM): 82.5%
normalised viability (HCC1599 [24]; 100 nM): 98.8%
normalised viability (HCC1599 [24]; 1000 nM): 53.7%
normalised viability (HCC1937 [25]; 1 nM): 105%
normalised viability (HCC1937 [25]; 100 nM): 34.2%
normalised viability (HCC1937 [25]; 1000 nM): 20%
normalised viability (SK-BR-3 [26]; 1 nM): 103%
normalised viability (SK-BR-3 [26]; 100 nM): 40.1%
normalised viability (SK-BR-3 [26]; 1000 nM): 6.42%

COC1=C2C[C@@H](C)C[C@H](OC)[C@H](O)[C@@H](C)/C=C(\C)[C@H](OC(N)=O)[C@@H](OC)/C=C\C=C(/C)C(=O)NC(=CC1=O)C2=O [Geldanamycin]
EC50, CellTiter-Glo (BT-474): 4080 nM
EC50, CellTiter-Glo (BT-549 [1]): 3180 nM
EC50, CellTiter-Glo (CAL-120 [2]): 6700 nM
EC50, CellTiter-Glo (CAL-148): 7.19 µM
EC50, CellTiter-Glo (CAL-51): 3480 nM
EC50, CellTiter-Glo (CAL-85-1): 2680 nM
EC50, CellTiter-Glo (DU-4475): 2470 nM
EC50, CellTiter-Glo (HCC1143 [3]): 6.31 µM
EC50, CellTiter-Glo (HCC1599 [4]): 5.81 µM
EC50, CellTiter-Glo (HCC1937 [5]): 2130 nM
EC50, CellTiter-Glo (HDQ-P1): 3910 nM
EC50, CellTiter-Glo (Hs578T [6]): 5350 nM
EC50, CellTiter-Glo (MCF-10A): 4380 nM
EC50, CellTiter-Glo (MDA-MB-231 [7]): 3390 nM
EC50, CellTiter-Glo (MDA-MB-436 [8]): 1050 nM
EC50, CellTiter-Glo (MDA-MB-453): 3390 nM
EC50, CellTiter-Glo (MDA-MB-468 [9]): 4130 nM
EC50, CellTiter-Glo (MFM-223 [10]): 666 nM
EC50, CellTiter-Glo (SK-BR-3 [11]): 1820 nM
EC50, CellTiter-Blue viability (BT-549 [12]): 46.8 nM
EC50, CellTiter-Blue viability (CAL-120 [13]): 38.1 nM
EC50, CellTiter-Blue viability (HCC1143 [14]): 36.6 nM
EC50, CellTiter-Blue viability (HCC1599 [15]): 270 nM
EC50, CellTiter-Blue viability (HCC1937 [16]): 47.1 nM
EC50, CellTiter-Blue viability (Hs578T [17]): 90.5 nM
EC50, CellTiter-Blue viability (MDA-MB-231 [18]): 63.1 nM
EC50, CellTiter-Blue viability (MDA-MB-436 [19]): 40.9 nM
EC50, CellTiter-Blue viability (MDA-MB-468 [20]): 64.7 nM
EC50, CellTiter-Blue viability (MFM-223 [21]): 90 nM
EC50, CellTiter-Blue viability (SK-BR-3 [22]): 46.8 nM
normalised viability (HCC1143 [23]; 10 nM): 90.2%
normalised viability (HCC1143 [23]; 1000 nM): 38.3%
normalised viability (HCC1143 [23]; 10000 nM): 24.9%
normalised viability (HCC1599 [24]; 10 nM): 113%
normalised viability (HCC1599 [24]; 1000 nM): 31.3%
normalised viability (HCC1599 [24]; 10000 nM): 20.1%
normalised viability (HCC1937 [25]; 10 nM): 115%
normalised viability (HCC1937 [25]; 1000 nM): 30.1%
normalised viability (HCC1937 [25]; 10000 nM): 21.3%
normalised viability (SK-BR-3 [26]; 10 nM): 101%
normalised viability (SK-BR-3 [26]; 1000 nM): 14.9%
normalised viability (SK-BR-3 [26]; 10000 nM): 9.38%

CCOc1cc2ncc(C#N)c(Nc3ccc(OCc4ccccn4)c(Cl)c3)c2cc1NC(=O)/C=C/CN(C)C [Neratinib]
EC50, CellTiter-Glo (CAL-120 [2]): 412 nM
EC50, CellTiter-Glo (CAL-148): 0.0952 µM
EC50, CellTiter-Glo (CAL-51): 926 nM
EC50, CellTiter-Glo (CAL-85-1): 91.2 nM
EC50, CellTiter-Glo (HDQ-P1): 309 nM
EC50, CellTiter-Glo (MCF-10A): 57.8 nM
EC50, CellTiter-Glo (MDA-MB-453): 7.56 nM
EC50, CellTiter-Glo (MDA-MB-468 [9]): 539 nM
EC50, CellTiter-Glo (MFM-223 [10]): 692 nM
EC50, CellTiter-Glo (SK-BR-3 [11]): 2.49 nM
normalised viability (HCC1143 [23]; 1 nM): 97.1%
normalised viability (HCC1143 [23]; 100 nM): 91.9%
normalised viability (HCC1143 [23]; 1000 nM): 84.5%
normalised viability (HCC1599 [24]; 1 nM): 108%
normalised viability (HCC1599 [24]; 100 nM): 106%
normalised viability (HCC1599 [24]; 1000 nM): 90.1%
normalised viability (HCC1937 [25]; 1 nM): 80.3%
normalised viability (HCC1937 [25]; 100 nM): 99.5%
normalised viability (HCC1937 [25]; 1000 nM): 96.3%
normalised viability (SK-BR-3 [26]; 1 nM): 107%
normalised viability (SK-BR-3 [26]; 100 nM): 95.8%
normalised viability (SK-BR-3 [26]; 1000 nM): 114%

COc1ccc(C2=N[C@@H](c3ccc(Cl)cc3)[C@@H](c3ccc(Cl)cc3)N2C(=O)N2CCNC(=O)C2)c(OC(C)C)c1 [Nutlin-3]
EC50, CellTiter-Glo (CAL-148): 7.03 µM
EC50, CellTiter-Glo (CAL-51): 17.6 nM
EC50, CellTiter-Glo (DU-4475): 2950 nM
EC50, CellTiter-Glo (MDA-MB-453): 7190 nM
normalised viability (HCC1143 [23]; 10 nM): 77.6%
normalised viability (HCC1143 [23]; 1000 nM): 82.8%
normalised viability (HCC1143 [23]; 10000 nM): 82.9%
normalised viability (HCC1599 [24]; 10 nM): 96.1%
normalised viability (HCC1599 [24]; 1000 nM): 104%
normalised viability (HCC1599 [24]; 10000 nM): 97.4%
normalised viability (HCC1937 [25]; 10 nM): 81.3%
normalised viability (HCC1937 [25]; 1000 nM): 98.7%
normalised viability (HCC1937 [25]; 10000 nM): 113%
normalised viability (SK-BR-3 [26]; 10 nM): 103%
normalised viability (SK-BR-3 [26]; 1000 nM): 98.1%
normalised viability (SK-BR-3 [26]; 10000 nM): 101%
